Data on 38 compounds can be found in US8563580B2, “Flavivirus inhibitors and methods for their use” (Georgetown University, priority 2008, dated 2013).

One assay deals with WNV protease. Put plainly: High Throughput Screen (HTS) protease assay. It is filed as biochemical, West Nile virus (EG101 strain). The conditions noted are these: 100 nl of 5 mg/ml compound in DMSO per 30.1 μl well; substrate Boc-Gly-Lys-Arg-AMC 50 μM; DMSO controls = 100% activity. Here is the method:
Procedures for expression and purification of WNV (EG101 strain) were similar to those described elsewhere by Mueller et al., Int. J. Biochem. Cell. Biol., 39: 606-14 (2007). Briefly, E. coli Top10 F′ cells (Invitrogen, Carlsbad, Calif.) were transformed with the protease expression plasmid. Cells were grown at 37° C. until the OD600 was ˜0.5. Cells were then induced with isopropyl-1-thio-β-D-galactopyranoside (American Bioanalytical, Natick, Mass.) (0.5 mM), and incubated for 4 h at 37° C. Cells were harvested by centrifugation (5000×g) for 15 min at 4° C., washed once with a buffer containing 50 mM Tris-HCl, pH 7.5, and 200 mM NaCl, centrifuged at 5000×g for 15 min at 4° C., and stored at -80° C. until used.
Proteases were purified by suspending bacterial pellets in 50 mM Hepes, pH 7.0, 500 mM NaCl, (buffer A) with 0.05 mg/ml lysozyme. Cells were incubated for 30 min on ice after addition of 10% stock solution of Triton X-100 (final concentration of 0.5%). Cells were disrupted by sonication for 2 min and the soluble fraction was collected after centrifugation (15,000×g) for 30 min at 4° C. The soluble fraction was incubated for 1 h at 4° C. with Talon resin (BD Bioscience, San Jose, Calif.) which was pre-equilibrated in buffer A. The affinity resin was centrifuged at (400×g) for 10 min at 4° C., washed three times with buffer A, and packed into a column. Washing of the column was continued with the buffer A containing 10 mM imidazole, followed by elution of the protease with buffer A containing 150 mM imidazole. The protease was concentrated and further purified by Sephadex G-75 gel filtration chromatography. The purified protease fractions were pooled and dialyzed against a buffer containing 50 mM Tris-HCl pH 7.5 and 300 mM NaCl (4×1 L). Aliquots (100 μl) were frozen at −80° C.
The protease assay (100 μl) described by Mueller et al., Int. J. Biochem. Cell. Biol. 39: 606-14 (2007) was adapted for a 384-well plate format (30.1 μl). Microtiter plates were loaded sequentially with 14 μl of the reaction buffer containing 200 mM Tris-HCl, pH 9.5, and 30% glycerol (TG buffer) using an automated Wellmate (Matrix, Hudson, N.H.) and 6 μl of WNV protease (0.05 μM) (as prepared above) in TG buffer containing 15 mM NaCl (3 mM final concentration). Plates were then centrifuged at 1000×g for 3 min at room temperature to mix samples and pool liquids at the bottom of the wells. Inhibitor compounds (100 nl of 5 mg/ml in dimethyl sulfoxide; DMSO) were added to each well in duplicate by a pin-transfer mechanism of a robotic delivery system. The final inhibitor concentrations in the assays varied due to different molecular weights of the compounds from the libraries that were screened. Plates were incubated at room temperature to allow for formation of protease/inhibitor complexes. The fluorogenic substrate, t-butyl-oxycarbonyl(Boc)-Gly-Lys-Arg-7-amino-4-methyl coumarin (AMC) (10 μl in TG buffer; 50 μM final concentration in the reaction mixture), was added using the Wellmate, and the plates were centrifuged for 3 min at 1000×g and incubated at room temperature for 15 min. Fluorescence was measured at excitation and emission wavelengths of 385 nm and 465 nm, respectively, on a Perkin-Elmer (Waltham, Mass.) spectrofluorometer. To validate the assay conditions, aprotinin (bovine pancreatic trypsin inhibitor, BPTI) was used as a positive control. Assay mixtures containing DMSO were used as negative controls. The average of fluorescence values in duplicate wells for a given compound was used to determine the percent activity by taking the values obtained with DMSO controls as 100%. Compounds 1-11, 18-32, and 37-101 above were identified. […] Compounds 12-17 are compounds related to those identified in the HTS screen that also show significant WNV protease inhibition, i.e., >95%.

The test system of assay [1] is Dengue 2 replicon expressing BHK cells. Briefly: Replicon inhibition assay (Renilla luciferase), Dengue 2 replicon expressing BHK cells. It is filed as cell-based, Dengue virus (DENV2). The conditions noted are these: for EC50: Dengue virus. Here is the method:
(§1) Baby Hamster Kidney (BHK) and African green monkey kidney epithelial cells (Vero) were cultured in Dulbecco's Modified Eagle Medium (DMEM) (Cellgro®; Mediatech, Inc., Manassas, Va.) supplemented with 10% fetal bovine serum, MEM nonessential amino acid (Cellgro®) (5 ml/liter), and Penicillin-Streptomycin (2.5 ml/liter). Dengue 2 replicon expressing BHK cells and WNV replicon expressing Vero cells were cultured in DMEM as described above containing additionally Geneticin or G418 (Fisher Scientific®, Pittsburgh, Pa.) to maintain the selective pressure of the replicon expressing cells.
(§2) Dengue 2 replicon expressing BHK cells and WNV replicon expressing Vero cells were plated 100 μl into a black 96 well plate (Greiner Bio-One; Monroe, N.C.) with 10^5 cells/ml concentrations. After 6 hours of incubation, 1 μl of each compound diluted in DMSO to 2.5 mM was added into each well to obtain a 25 μM as the final concentration. Cells were incubated at 37° C. in a humidified CO2 (5%) chamber for 24 hours. The media was then removed and the cells are washed with PBS before adding 20 μl of lysis buffer to each well. A Renilla luciferase assay was performed with the addition of 50 μl substrate (Promega Corporation; Madison, Wis.) with a 2 second delay and a 10 second measurement in a Centro LB 960 plate luminescence plate reader (Berthold Technologies; Oak Ridge, Tenn.). The data was analyzed and plotted with GraphPad Prism 5 (GraphPad Software, Inc.; La Jolla, Calif.).
Renilla luciferase activity was measured as described above 24 hours after the addition of the compounds.
(In antiviral work, replicon cells carry a viral genome segment that copies itself.)

For assay [2], the system named is WNV replicon expressing Vero cells. Put plainly: Replicon inhibition assay (Renilla luciferase), WNV replicon expressing Vero cells. It is filed as cell-based, West Nile virus (WNV). Here is the method:
as §1, §2
Specifically, the cells were prepared as above and the concentration of the compounds were varied (see Table 2). Renilla luciferase activity was measured as described above 24 hours after the addition of the compounds.

With `Oc1ccccc1C(Nc1nc2ccccc2s1)c1ccc2cccnc2c1O` (centres unmarked) [Compound 16], the “% Inhibition (reduction in protease activity)” value in the assay with WNV protease is reported as over 95%. In addition, the EC50 (as a rule, the concentration at which the effect is half-maximal) in assay [1] (DENV2, BHK) is about 4.5 µM.

As for `Oc1c(CN2CCOCC2)ccc2cccnc12` [Compound 33], the “WNV replicon inhibition (FIG. 1)” value in assay [2] (25 μM final concentration, 24 hours, Vero cells) is “inhibitory”. Moreover, the EC50 in assay [2] (West Nile virus, Vero, 24 h) is 7.96 µM; in assay [1] (BHK, 24 h), 10.6 µM. Moreover, in assay [1] (25 μM final concentration, 24 hours, BHK cells), the “DENV2 BHK replicon inhibition (FIG. 2)” value is “inhibitory”.

Take `Oc1c(C(Nc2nc3ccccc3s2)c2ccccc2)ccc2cccnc12` (centres unmarked) [Compound 13]: the “% Inhibition (reduction in protease activity)” value with WNV protease is over 95%. Moreover, the EC50 in assay [1] (DENV2, BHK) is about 7.5 µM. `O=C(COc1cccc2ccccc12)N1CCc2ccccc2C1` [Compound 47]: the “% Inhibition (reduction in protease activity)” value in the assay on WNV protease amounted to 83%.

Take `COC(=O)c1ccc2c(c1)N(Cc1nc(-c3ccccc3C)oc1C)C(=O)C1CCCN21` (centres unmarked) [Compound 49]: the “% Inhibition (reduction in protease activity)” value with WNV protease stood at 58%.

Consider `CC(NC(=O)Cc1cccs1)C(c1cccs1)N1CCN(c2ccccc2)CC1` (centres unmarked) [Compound 66], for which the “% Inhibition (reduction in protease activity)” value with WNV protease stood at 62%.

With `COC(=O)c1cc2oc3ccccc3c2n1CC(=O)NCc1ccco1` [Compound 67], the “% Inhibition (reduction in protease activity)” value in the assay with WNV protease was 61%.

`CC(/C=C1\SC(=S)N(CC(=O)Nc2cccnc2)C1=O)=C\c1ccccc1` [Compound 22]: in the assay with WNV protease, the “% Inhibition (reduction in protease activity)” value is given as 72.5%. Still for that read-out and setting: the value for `C=CCOc1cccc(C(Nc2cccc(C)n2)c2ccc3cccnc3c2O)c1` (centres unmarked) [Compound 5] was 81%. With `CC(/C=C1\SC(=S)N(CCCC(=O)Nc2cccnc2)C1=O)=C\c1ccccc1` [Compound 23], the “% Inhibition (reduction in protease activity)” value in the assay on WNV protease amounted to 72%. Same read-out and setting: the value for `CCCCC(=O)NC(c1cccs1)c1cc(Cl)c2cccnc2c1O` (centres unmarked) [Compound 7] was 76%; that for `Cc1ccc(/N=C2\NC(=O)C(CC(=O)Nc3ccc(OC(F)(F)F)cc3)S2)cc1` (centres unmarked) [Compound 81] was 55%; that for `CCOC(=O)C1C(=O)N(C(=O)c2ccc(OC)cc2)CC1c1ccccc1` (centres unmarked) [Compound 46] was 50%.

On to `C=CCn1c(Cc2ccccc2)nc2c(cnn2-c2ccccc2)c1=O` [Compound 52], for which the “% Inhibition (reduction in protease activity)” value in the assay on WNV protease is recorded as 52%. With `COC(=O)c1ccc(C(Nc2ccccn2)c2ccc3ccc(C)nc3c2O)cc1` (centres unmarked) [Compound 3], in the assay with WNV protease, the “% Inhibition (reduction in protease activity)” value is recorded as 84.5%.

Consider `O=C(CCCN1C(=O)/C(=C/C=C/c2ccccc2)SC1=S)Nc1cccc(F)c1` [Compound 27], for which, in the assay with WNV protease, the “% Inhibition (reduction in protease activity)” value amounted to 66%. Consider `Oc1c(C(Nc2nccs2)c2cccc(OCc3ccccc3)c2)ccc2cccnc12` (centres unmarked) [Compound 17], for which the “% Inhibition (reduction in protease activity)” value with WNV protease is on record as over 95%. The compound also gave an EC50 in assay [1] (DENV2, BHK) of about 8.3 µM. On to `CCc1ccccc1NC(=O)Cn1cccc1C1=NC(c2ccccc2)CO1` (centres unmarked) [Compound 100], for which the “% Inhibition (reduction in protease activity)” value in the assay with WNV protease was determined as 50%. On the same count and under the same terms, the value for `O=C1c2ccccc2C(O)(Cc2ccccc2)N1c1ccc2c(c1)OCO2` (centres unmarked) [Compound 42] was 54%; that for `Cc1cc(NC(c2cccc(Br)c2)c2ccc3cccnc3c2O)no1` (centres unmarked) [Compound 10] was 70%; that for `Oc1c(C(Nc2nccs2)c2ccc(F)cc2)ccc2cccnc12` (centres unmarked) [Compound 9] was 74%. As to `O=C1N=c2ccc(S(=O)(=O)N(CCc3ccccc3)Cc3ccccc3)cc2=NC1=O` [Compound 50], the “% Inhibition (reduction in protease activity)” value in the assay on WNV protease amounted to 55%. For the compound `COc1ccc(Cc2c(O)nc(SC)n(-c3ccccc3)c2=O)cc1` [Compound 55], the “% Inhibition (reduction in protease activity)” value with WNV protease stood at 51%. On to `Cc1ccc(CNC(=O)Cc2ccc(-n3cccc3)cc2)cc1` [Compound 77], for which the “% Inhibition (reduction in protease activity)” value in the assay with WNV protease was 56%. `O=C(c1conc1-c1ccccc1)n1cccc1` [Compound 40]: the “% Inhibition (reduction in protease activity)” value in the assay on WNV protease was 56%. `CC1=NC(NC(=O)CCN2C(=O)/C(=C/C(C)=C/c3ccccc3)SC2=S)[SH]=C1` (centres unmarked) [Compound 24]: the “% Inhibition (reduction in protease activity)” value with WNV protease was determined as 70%. For `CCOC(=O)c1ccc(NC(=O)Cn2ncc3c4ccccc4n(Cc4ccccc4)c3c2=O)cc1` [Compound 59], the “% Inhibition (reduction in protease activity)” value in the assay on WNV protease is on record as 53%. Consider `Clc1ccc(CN2COc3c(cc(Cl)c4cccnc34)C2)cc1` [Compound 37], for which the “% Inhibition (reduction in protease activity)” value with WNV protease was 71%. As for `Cc1cccc(NC(c2ccccc2OCc2ccccc2)c2ccc3cccnc3c2O)n1` (centres unmarked) [Compound 15], the “% Inhibition (reduction in protease activity)” value in the assay on WNV protease is reported as over 95%. The same measure, in the same setting: as for `COc1ccc(NC(=O)C(NC(=O)Cc2cccs2)c2ccccc2)cc1` (centres unmarked) [Compound 78], the figure is 56%. As to `Cc1ccc(-c2noc(CCC(=O)NCC3CCN(Cc4cccc(C)c4)CC3)n2)cc1` [Compound 98], the “% Inhibition (reduction in protease activity)” value in the assay with WNV protease amounted to 51%.

Regarding `CCc1ccc(-c2cc(C(=O)Nc3ccc(S(=O)(=O)NC(C)=O)cc3)c3ccccc3n2)cc1` [Compound 87], the “% Inhibition (reduction in protease activity)” value in the assay on WNV protease turned out to be 54%. Still for that read-out and setting: the value for `Nc1sc2c(c1C(=O)NCCc1ccccc1)CCC2` [Compound 72] was 59%; that for `COc1ccc(NC(=O)c2c(N)sc(-c3ccccc3)c2C)cc1` [Compound 63] was 65%. Consider `O=C(Nc1nc(SCc2ccc(F)cc2)ns1)c1cccs1` [Compound 99], for which, in the assay with WNV protease, the “% Inhibition (reduction in protease activity)” value came to 50%. On the same count and under the same terms, the value for `Oc1c(C(c2ccc(Cl)cc2)N2CCOCC2)cc(Cl)c2cccnc12` (centres unmarked) [Compound 11] was 65%. As for `CCCCC1CCC(C(=O)Nc2c3c(nn2-c2ccccc2C)C[S+]([O-])C3)CC1` (centres unmarked) [Compound 96], in the assay on WNV protease, the “% Inhibition (reduction in protease activity)” value stood at 51%. As for `CC(C)(C)C1CCC(C(=O)OCC(=O)Nc2ccc(C(N)=O)cc2)CC1` (centres unmarked) [Compound 65], the “% Inhibition (reduction in protease activity)” value with WNV protease was 63%.
